Data on 3 compounds can be found in paper PMC11481179, “Development and Application of Reversible and Irreversible Covalent Probes for Human and Mouse Cathepsin‐K Activity Detection, Revealing Nuclear Activity” (Advanced Science, 2024).

The target of one series is CTSS (Homo sapiens, UniProt P25774). As to the kind of experiment: In vitro kinetic evaluation of cathepsin inhibition, fluorescent substrate Z-FR-AMC. As to conditions: for mode of inhibition: CTSS; for times less potent toward CTSS compared to CTSK: selectivity CTSK over CTSS. In kind it is biochemical. As for the experimental part: (§1) used for TLC. Phosphate Buffer Saline (PBS) was purchased from Biological Industries (pH = […]
CTSS, sequence (P25774 115-331): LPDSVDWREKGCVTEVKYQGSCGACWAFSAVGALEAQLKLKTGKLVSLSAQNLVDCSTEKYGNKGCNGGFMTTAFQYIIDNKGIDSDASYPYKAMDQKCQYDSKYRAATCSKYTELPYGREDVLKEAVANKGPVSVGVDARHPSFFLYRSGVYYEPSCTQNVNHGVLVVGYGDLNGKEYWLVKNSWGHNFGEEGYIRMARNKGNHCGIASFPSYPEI
(§2) 7.4) and was used as a buffer system in all experiments if not indicated otherwise. […]
(§3) Recombinant human CTSB, CTSK, CTSL, and CTSS were supplied by B. Turk (J.
(§4) Stefan Institute).[1] […]
(§5) In vitro kinetic evaluation of labeling recombinant cathepsins:
(§6) Reactions were monitored for 30 min at 37° C in 96-well black flat-bottom microplates […]
(§7) (Greiner, Germany) using Tecan INFINITE M1000 pro plate reader (Tecan, Switzerland), […]
(§8) substrates Z-RR-AMC (CTSL) or Z-FR-AMC (CTSS, CTSB and CTSK), and excitation and […]
(§9) emission wavelengths of 370 and 460 nm, respectively. Cathepsin concentrations in the assay were 0.4 nM (CTSK) or 5 nM (CTSS, CTSB, and CTSL). The buffer was 100 mM Na2HPO4/NaH2PO4, 50 mM NaCl, 5 mM DTT, 0,1% Peg-6000, pH 6. For irreversible inhibitors, reaction data were fitted to the one-phase association formula in GraphPad Prism 9 software: Y=Y0 + (Plateau-Y0)*(1-exp(-K*X)) where in this case Y0 and Y represent fluorescence signal at times 0 and t, respectively, K represent the observed reaction rate kobs and X the inhibitor concentration. Inactivation rates at each inhibitor concentration were obtained by subtracting the inactivation observed in the control sample: kobs – kctrl. The maximal rate of inactivation (kinact) was obtained as the asymptote from equation Y = kinact*X/(Kiapp + X) where X is inhibitor concentration, Y is the observed inactivation rate for each X, and Kiapp is the apparent inhibition constant. Ki values were calculated from IC50 or from Kiapp using formulas Ki = Kiapp / (1 + Km/S) and IC50 = E0/2 + Kiapp, where Km stands for Michalis-Menten constant, S for substrate concentration and E0 for cathepsin concentration.
(§10) The highest inhibitor concentrations in the assay were 50 µM. Measurements were performed in several independent duplicates. Average values are presented with standard deviations. […]

For a further series, the target named is CTSL (Homo sapiens, UniProt P07711). The series can be described thus: In vitro kinetic evaluation of cathepsin inhibition, fluorescent substrate Z-RR-AMC. In kind it is biochemical. As to conditions: for mode of inhibition: CTSL; for Ki: CTSL 5 nM, pH 6, 37 °C. As for the experimental part:
as §1, §2, §3, §4, §5, §6, §7, §8, §9, §10
µM) were pretreated with different concentrations of probes (GD32, GD36, GD37, or GD42)

In another series the test system is U-2 OS cells. The series can be described thus: Cell viability assay (methylene blue). It counts as cell-based, human. As to conditions: 48 h incubation. As for the experimental part:
(§11) U-2 OS, U-87 MG, and enriched monocyte cells were grown at 370 C with 5% of CO2 in the
(§12) respective medium as described previously. Cells were seeded (1500 cells/well in 96 wells
(§13) plate) one day before the incubation with indicated probe or inhibitor at various concentrations.
(§14) After 48 h cells were fixed, and viability was measured by quantitative colorimetric assay using
(§15) methylene blue according to the procedure reported by Ben-Bassat et al. The data were
(§16) expressed as a percentage of control; data represent the mean of 2 experiments with triplicates
(§17) for each treatment (± standard deviation).
(§18) Fluorescent imaging of CTSK activity in lung tissue: Freshly resected human lung cancer and
(§19) normal lung tissues or mouse normal lung and primary lung cancer were embedded in OCT,
(§20) frozen in liquid nitrogen, and kept at - 80° C. Tissues were sectioned into 10 μm thick slices
(§21) using a cryostat (Leica). The slides were defrosted and washed with 1X PBS. Then the slides
(§22) were pretreated with DMSO or GD30 (5 µM) in buffer acetate for 1 h at 37° C. Afterward,
(§23) GD32 (0.75uM) or DMSO in buffer acetate were applied to the slides for 4 h at 37° C. Three
(§24) short washes with 1X PBS were done and the slides were left in 1X PBS for overnight
(§25) incubation at 4° C. The next day, slides were mounted with DAPI-Fluoromount-G® before
(§26) visualization by confocal microscopy. Olympus FV10i was used for human samples, whereas
(§27) Zeiss was used for mouse samples.
(§28) Details of the synthesis of the compounds
(§29) Synthesis of Compound (2)

A further series relates to U-87 MG cells. The series can be described thus: Cell viability assay (methylene blue). It counts as cell-based, human. Conditions: 48 h incubation. As for the experimental part:
as §11, §12, §13, §14, §15, §16, §17, §18, §19, §20, §21, §22, §23, §24, §25, §26, §27, §28, §29

CTSL, sequence (P07711 114-333): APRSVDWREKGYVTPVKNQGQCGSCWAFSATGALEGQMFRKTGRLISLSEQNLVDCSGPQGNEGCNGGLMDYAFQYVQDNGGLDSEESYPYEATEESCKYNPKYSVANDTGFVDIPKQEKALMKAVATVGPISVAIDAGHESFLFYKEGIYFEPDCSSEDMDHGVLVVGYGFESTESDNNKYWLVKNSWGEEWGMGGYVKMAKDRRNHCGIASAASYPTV

As for `CC(C)C[C@H](N[C@@H](c1ccc(-c2ccc(S(=O)(=O)CCNC(=O)CCCCC[N+]3=C(/C=C/C=C/C=C4/N(C)c5ccc(S(=O)(=O)O)cc5C4(C)C)C(C)(C)c4cc(S(=O)(=O)O)ccc43)cc2)cc1)C(F)(F)F)C(=O)NC1(C#N)CC1` [GD37], the mode of inhibition result at CTSS and on CTSL was “Reversible” each time. For the same compound, the Ki (as a rule, a measure of affinity in units of concentration, obtained from inhibition or displacement) at CTSS (CTSS 5 nM, pH 6, 37 °C) worked out at 60 nM; at CTSL, 1200 nM. Also, the “times less potent toward CTSS compared to CTSK” value at CTSS was found to be 150 times.

For the compound `C#CCNC(=O)[C@H](CC(C)C)N[C@@H](c1ccc(-c2ccc(S(=O)(=O)CCNC(=O)OC(C)(C)C)cc2)cc1)C(F)(F)F` [GD30], the cytotoxicity result in the series with U-2 OS cells and with U-87 MG cells was “No toxicity” each time.

Regarding `C#CCNC(=O)[C@H](CC(C)C)N[C@@H](c1ccc(-c2ccc(S(=O)(=O)CCNC(=O)CCCCC[N+]3=C(/C=C/C=C/C=C4/N(C)c5ccc(S(=O)(=O)O)cc5C4(C)C)C(C)(C)c4cc(S(=O)(=O)O)ccc43)cc2)cc1)C(F)(F)F` [GD32], on CTSS, the mode of inhibition result is “Irreversible” and the “times less potent toward CTSS compared to CTSK” value is 115 times. Further, on CTSS (CTSS 5 nM, pH 6, 37 °C), the affinity corresponds to a Ki of 980 nM, the kinact (commonly the maximal first-order rate at which the target is inactivated) came out at 0.0022 ± 0.00009 s⁻¹ and the kinact/Ki is 2220 ± 300 M⁻¹ s⁻¹. Also, at CTSL, the mode of inhibition entry is recorded as “Reversible” and the Ki came out at 20000 nM. The cytotoxicity result in the series with U-2 OS cells is reported as “No toxicity”. In addition, the cytotoxicity entry in the series on U-87 MG cells is on record as “No toxicity”.
